Source: US4876260A, “Oxathiolanes” (State of Israel, Israel Institute of Biological Research, priority 1988, dated 1989)

Assays:
[1] = target: T1, M1 muscarinic receptors (3H-PZ sites, forebrain) (Rattus norvegicus, UniProt P08482); test: Displacement of 3H-Pirenzepine (3H-PZ, selective M1 antagonist) from rat forebrain homogenate; assay type: binding; details: for Ki: (a) forebrain
T1 sequence (P08482 1-460): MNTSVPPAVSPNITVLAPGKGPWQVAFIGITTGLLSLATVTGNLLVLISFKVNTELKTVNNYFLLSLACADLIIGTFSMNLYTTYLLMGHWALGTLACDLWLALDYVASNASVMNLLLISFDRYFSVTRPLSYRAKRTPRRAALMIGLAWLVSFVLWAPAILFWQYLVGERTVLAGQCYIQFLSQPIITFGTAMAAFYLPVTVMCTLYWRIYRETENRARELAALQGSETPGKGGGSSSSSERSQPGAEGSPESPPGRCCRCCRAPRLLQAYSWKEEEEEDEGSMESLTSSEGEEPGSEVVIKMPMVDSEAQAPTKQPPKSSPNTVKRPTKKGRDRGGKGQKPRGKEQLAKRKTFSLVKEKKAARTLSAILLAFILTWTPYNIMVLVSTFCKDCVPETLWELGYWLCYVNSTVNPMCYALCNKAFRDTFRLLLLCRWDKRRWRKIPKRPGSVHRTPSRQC

[2] = system: muscarinic receptors (3H-QNB sites, cerebellum, mainly M2); test: biochemical; assay type: binding, rat; details: for a:b": (h) Ki(3H-PZ) forebrain : Ki(3H-QNB) cerebellum; for b:b": (j) Ki(3H-QNB) forebrain : Ki(3H-QNB) cerebellum
[3] = target: T2, M1 muscarinic receptors (3H-PZ sites, frontal cortex) (Rattus norvegicus, UniProt P08482); test: Displacement of 3H-PZ from rat frontal cortex homogenate; assay type: binding; details: for Ki: (a') frontal cortex, read-out: Ki(3H-PZ); for a':c', Ki(3H-PZ):Ki(3H-CD): (g) frontal cortex ratio
T2 sequence (P08482 1-460): T1 sequence (P08482 1-460)

[4] = system: isolated guinea-pig ileum; test: Contraction of isolated guinea-pig ileum preparation
Excerpt: From this Table, it appears that compounds (III) were not so effective in contracting the guinea pig ileum preparation.

[5] = system: mice; test: Pharmacodynamic profile and general toxicity in mice; assay type: in vivo, CD-1 mice
Procedure: Male white mice of the CD-1 strain supplied by Charles River Ltd. (U.K.) were used throughout. An acclimatization period of at least three days was allowed between arrival and commencement of a particular experimental series. The animals were fed a complete commercial pelleted rodent diet without restriction during the acclimatization and study periods. Animals had free access to tap water. Body weights during testing were mostly within 20-28 g.
Test materials were prepared as aqueous solutions in physiological saline (0.9% NaCl), up to a maximum concentration of 10 mg./ml. All materials were freshly prepared on the morning prior to each dosing session. Dosages were expressed gravimetrically (mg./kg.), in terms of the materials as received.
Groups of mice (mostly n=5) received either i.v. or oral administration of the test materials at various dose levels. Dose volumes appropriate for respective dose levels selected, were determined for each animal according to body weights on the day of dosing. Any behavioral changes occurring during one to two hours after administration, as well as incidence of death up to 24 hours after dosing were recorded.

[6] = 10 mg/kg i.v., listed as (-)-III AF122B
[7] = 25 mg/kg i.v., listed as (-)-III AF122B
[8] = 50 mg/kg i.v., listed as (-)-III AF122B
[9] = 100 mg/kg i.v., immed = immediately
[10] = 200 mg/kg p.o., listed as (-)-III AF122B
[11] = 25 mg/kg i.v., listed as (-)-III AF122A
[12] = 50 mg/kg i.v., listed as (-)-III AF122A
[13] = 200 mg/kg p.o., listed as (-)-III AF122A
[14] = 50 mg/kg i.v., listed as (+)-III AF122A
[15] = 200 mg/kg p.o., listed as (+)-III AF122A

`C[C@@H]1O[C@]2(CS1)CN1CCC2CC1` (relative stereo) [compound 3, 2-methylspiro(1,3-oxathiolan-5,3')quinuclidine] was tested, and the “a:b, Ki(3H-PZ):Ki(3H-QNB)” value [1] was 0.59, the Ki [1] was 14.6 ± 2.9 µM and the “a:b"” value [2] was 0.52. The “b:b"” value [2] was 0.88.

With `C[C@H]1O[C@]2(CS1)CN1CCC2CC1` (single isomer, unassigned) [Compound #5, 2-methylspiro(1,3-oxathiolan-5,3')quinuclidine] the “a:b, Ki(3H-PZ):Ki(3H-QNB)” value [1] was 0.3, the Ki [1] was 1.1 ± 0.3 µM and the “a:b"” value [2] was 0.14. For the same compound, the “b:b"” value [2] was 0.47, the Ki [3] was 0.41 ± 0.08 µM and the “a':c', Ki(3H-PZ):Ki(3H-CD)” value [3] was 2.1.

In the case of `C[C@H]1O[C@]2(CS1)CN1CCC2CC1` (single isomer, unassigned) [compound 6, 2-methylspiro(1,3-oxathiolan-5,3')quinuclidine], the “a:b, Ki(3H-PZ):Ki(3H-QNB)” value [1] is reported as 0.20, the Ki [1] is reported as 9.6 ± 1.8 µM and the “a:b"” value [2] is reported as 0.1. The “b:b"” value [2] was 0.48, the Ki [3] was 4.63 ± 0.42 µM and the “a':c', Ki(3H-PZ):Ki(3H-CD)” value [3] was 0.6.

`CC1OCC2(CN3CCC2CC3)S1` (single isomer, unassigned) [compound 9, 2-methylspiro(1,3-oxathiolan-4,3')quinuclidine] was tested, and the “Contraction of guinea pig ileum (in words)” value ([4]; listed as (-)-AF122B) was “inconsistent contractile response: sometimes at high concentrations it induced contractions, whereas at other times it did not”, the “Analgesia (nonresponsiveness to tail pinch), No. affected/total treated” value (shortened to “Analgesia … No. affected/total treated”) [5, 6] was 3/5 and the “Mortality, No. dead/total treated” value [5, 6] was 0/5. For the same compound, the “Analgesia … No. affected/total treated” value ([5]; 25 mg/kg i.v.) was 5/5, the “Vocalization, No. affected/total treated” value ([5]; 25 mg/kg i.v.) was 1/5 and the Altered motor activity [5, 7] was “a+h”. For the same compound, the “Convulsive seizures, No. affected/total treated” value [5, 7] was 3/5, the “Mortality, No. dead/total treated” value [5, 7] was 0/5 and the “Respiratory distress, No. affected/total treated” value [5, 7] was 2/5. For the same compound, the “Tremors, No. affected/total treated” value [5, 7] was 3/5, the “Convulsive seizures, No. affected/total treated” value [5, 8] was 2/2 and the “Mortality, No. dead/total treated” value [5, 8] was 2/2. The “Mortality, time after drug administration” value (from here on “Mortality, time”) [5, 8] was 5 s, the Altered motor activity ([5]; 50 mg/kg p.o.) was “a+h” and the “Mortality, time” value [5, 9] was “immed”. For the same compound, the “Mortality, No. dead/total treated” value ([5]; 100 mg/kg i.v., listed as (-)-III AF122B) was 2/2, the “Convulsive seizures, No. affected/total treated” value ([5]; 100 mg/kg p.o.) was 2/5 and the “Respiratory distress, No. affected/total treated” value ([5]; 100 mg/kg p.o.) was 1/5. The “Tremors, No. affected/total treated” value ([5]; 100 mg/kg p.o.) was 1/5, the “Mortality, No. dead/total treated” value ([5]; 100 mg/kg p.o., listed as (-)-III AF122B) was 1/5 and the “Analgesia … No. affected/total treated” value [5, 10] was 3/4. For the same compound, the “Convulsive seizures, No. affected/total treated” value [5, 10] was 4/4, the “Mortality, No. dead/total treated” value [5, 10] was 4/4 and the “Respiratory distress, No. affected/total treated” value [5, 10] was 3/5. For the same compound, the “Vocalization, No. affected/total treated” value [5, 10] was 2/4, the “Mortality, time” value ([5]; 200 mg/kg p.o., m = minutes, listed as (-)-III AF122B) was 20 m and the Ki [3] was 12.1 µM.

In the case of `CC1OCC2(CN3CCC2CC3)S1` (single isomer, unassigned) [compound 12, 2-methylspiro(1,3-oxathiolan-4,3')quinuclidine], the “Mortality, No. dead/total treated” value ([5]; 10 mg/kg i.v., listed as (-)-III AF122A) is reported as 0/5, the “Exophthalmus, No. affected/total treated” value ([5]; 25 mg/kg i.v.) is reported as 4/5 and the “Convulsive seizures, No. affected/total treated” value [5, 11] is reported as 1/5. The “Mortality, No. dead/total treated” value [5, 11] was 1/5, the “Mortality, time” value [5, 11] was 10 s and the “Respiratory distress, No. affected/total treated” value [5, 11] was 4/5. The “Tremors, No. affected/total treated” value [5, 11] was 4/5, the “Convulsive seizures, No. affected/total treated” value [5, 12] was 1/1 and the “Mortality, No. dead/total treated” value [5, 12] was 1/1. For the same compound, the “Mortality, time” value [5, 12] was 10 s, the “Tremors, No. affected/total treated” value [5, 12] was 1/1 and the “Mortality, time” value [5, 9] was “immed”. For the same compound, the “Mortality, No. dead/total treated” value ([5]; 100 mg/kg i.v., listed as (-)-III AF122A) was 1/1, the “Mortality, No. dead/total treated” value ([5]; 100 mg/kg p.o., listed as (-)-III AF122A) was 0/5 and the “Tremors, No. affected/total treated” value ([5]; 200 mg/kg p.o.) was 3/5. For the same compound, the “Convulsive seizures, No. affected/total treated” value [5, 13] was 1/5, the “Mortality, No. dead/total treated” value [5, 13] was 1/5 and the “Respiratory distress, No. affected/total treated” value [5, 13] was 3/5. The “Vocalization, No. affected/total treated” value [5, 13] was 2/5, the “Mortality, time” value ([5]; 200 mg/kg p.o., m = minutes, listed as (-)-III AF122A) was 10 m and the Ki [3] was 0.35 ± 0.04 µM.

`C[C@H]1O[C@]2(CS1)CN1CCC2CC1` (relative stereo) [compound 4, 2-methylspiro(1,3-oxathiolan-5,3')quinuclidine] was tested, and the “Agonist type (remarks)” value [4] was “Full agonist”, the “a:b, Ki(3H-PZ):Ki(3H-QNB)” value [1] was 0.14 and the Ki [1] was 1 ± 0.4 µM. For the same compound, the “a:b"” value [2] was 0.07, the “a':b"” value ([2]; (i) Ki(3H-PZ) frontal cortex : Ki(3H-QNB) cerebellum) was 0.1 and the “b:b"” value [2] was 0.47. For the same compound, the “b':b"” value ([2]; (k) Ki(3H-QNB) frontal cortex : Ki(3H-QNB) cerebellum) was 0.39, the “a':b', Ki(3H-PZ):Ki(3H-QNB)” value [3] was 0.13 and the Ki [3] was 0.96 ± 0.05 µM. The “a':c', Ki(3H-PZ):Ki(3H-CD)” value [3] was 2.5.

In the case of `CC1OCC2(CN3CCC2CC3)S1` (single isomer, unassigned) [compound 13, 2-methylspiro(1,3-oxathiolan-4,3')quinuclidine], the “Mortality, No. dead/total treated” value ([5]; 10 mg/kg i.v., listed as (+)-III AF122A) is reported as 0/5, the “Mortality, No. dead/total treated” value ([5]; 25 mg/kg i.v., listed as (+)-III AF122A) is reported as 0/5 and the “Exophthalmus, No. affected/total treated” value ([5]; 50 mg/kg i.v.) is reported as 3/5. The “Convulsive seizures, No. affected/total treated” value [5, 14] was 5/5, the “Mortality, No. dead/total treated” value [5, 14] was 4/5 and the “Mortality, time” value [5, 14] was 30 s. The “Tremors, No. affected/total treated” value [5, 14] was 4/5, the “Mortality, No. dead/total treated” value ([5]; 50 mg/kg p.o.) was 0/5 and the “Mortality, time” value [5, 9] was “immed”. For the same compound, the “Mortality, No. dead/total treated” value ([5]; 100 mg/kg i.v., listed as (+)-III AF122A) was 1/1, the “Mortality, No. dead/total treated” value ([5]; 100 mg/kg p.o., listed as (+)-III AF122A) was 0/5 and the Altered motor activity [5, 15] was “a+h”. For the same compound, the “Mortality, No. dead/total treated” value [5, 15] was 0/5 and the Ki [3] was 4.21 ± 0.47 µM.
